Source: patent US20100016352A1, “COMPOUNDS AND METHODS FOR TREATING ESTROGEN RECEPTOR-RELATED DISEASES” (priority 2008, published 2010)

Key:
[1] = system: Human Breast Cancer BCAP-37 Cells xenografts; experiment: In vivo efficacy in inhibiting growth of human breast cancer BCAP-37 cells xenografts in nude mice; conditions: Mus musculus, Bcap37, po, 360 h; female nude mice, BCAP-37 xenograft, 35 mg/kg fed once every day for 15 days, tumor weight vs olive oil negative control; read-out: Inhibition rate of tumor growth (%)
Procedure: The In Vivo Efficacy in Inhibiting Growth of Human Breast Cancer BCAP-37 Cells Xenografts in Nude Mice Model
Nude mice with breast cancer xenografts are treated with the test compounds 5, 6, 8, 14, 22, 36 and 38 to test their effect on inhibiting tumor growth. Tumor tissues are taken from nude mice bearing BCAP-37 breast cancer and cut into small pieces. Several pieces of the tumor tissues are implanted into the armpit under the right front limb of female nude mice. After the implantation, the mice are fed with E2β solution once every day at the dosage of 7 μg per mouse for 6 days to stimulate tumor growth in the receiving mice. Starting on the seventh day, the mice are fed with the test compounds at the dosage of 35 mg/kg. Tamoxifen is used as a positive control. Olive oil is used as a negative control. The test compounds are prepared as an olive oil solution (20 mg/mL). The mice are given the test compounds and Tamoxifen at the dosage of 35 mg/kg or olive oil once every day for 15 days. Then the mice are sacrificed and the tumor tissues are dissected from the mice and weighed. The tumor growth inhibition rate is a percentage calculated using the formula: tumor growth inhibition rate=(average weight of the tumor in the negative control−average weight of the tumor treated with test compound)/average weight of the tumor in the negative control.

MCF7 cells = experiment: Cell apoptosis assay in ER-positive breast cancer MCF7 cells (cell number after treatment); assay type: cell-based, human; conditions: 10 days
Excerpt: Cell Apoptosis Assay in ER-Positive Breast Cancer MCF7 Cells
MCF7 cell line is a breast cancer cell line that strongly expresses ER-α66, ER-α46 and ER-α36 (Relevance of breast cancer cell lines as models for breast tumours: an update. Marc Lacroix, Guy Leclercq, Breast Cancer Research and Treatment (2004) 83, 249-289; Wang et al., Proc. Natl. Acad. Sci. U.S.A. 103:9063-9068 (2006)). MCF7 cells obtained from ATCC are maintained in DMEM/F12 medium (Invitrogen) supplemented with 10% fetal calf serum at 37° C. in a 5% CO2 atmosphere. The MCF7 cells are treated with the test compounds 6, 8, 14, 22, 27, 29, 30, 31, 36 and 38 at concentrations from 1 μM to 25 μM to test the effect of these compounds on MCF7 cell growth for 10 days. The control assay is conducted with MCF7 cells under the same assay conditions except that no test compound is added. Treated cells are examined under a Nikon TS100 inverted microscope and photographed for morphological changes.

[2] = MCF-7, tested compound concentration 1 μM
[3] = MCF-7, tested compound concentration 5 μM
[4] = MCF-7, tested compound concentration 10 μM
[5] = MCF-7, tested compound concentration 15 μM
[6] = MCF-7, tested compound concentration 25 μM

Compound | inhibition in vivo at 35 mg/kg [1] | Cell Number (×10^4) (MCF7 cells; [2]) | Cell Number (×10^4) (MCF7 cells; [3]) | Cell Number (×10^4) (MCF7 cells; [4]) | Cell Number (×10^4) (MCF7 cells; [5]) | Cell Number (×10^4) (MCF7 cells; [6])
COc1ccc(-c2oc3c(CC=C(C)C)c(O)cc(O)c3c(=O)c2OC)cc1OC [Compound 5, 5,7-dihydroxy-3-methoxy-2-(3,4-dimethoxyphenyl)-8-(3-methylbut-2-enyl)-4H-chromen-4-one] | 26% | – | – | – | – | –
COc1ccc(-c2oc3c(CCC(C)(C)O)c(O)cc(O)c3c(=O)c2OC)cc1OC [Compound 6, 5,7-dihydroxy-8-(3-hydroxy-3-methylbutyl)-3-methoxy-2-(3,4-dimethoxyphenyl)-4H-chromen-4-one] | 44% | 18.35 ×10^4 | 8.97 ×10^4 | 3.95 ×10^4 | 3.9 ×10^4 | 3.87 ×10^4
COc1ccc(-c2oc3c(CCC(C)(C)N)c(O)cc(O)c3c(=O)c2O)cc1 [Compound 8, 8-(3-amino-3-methylbutyl)-3,5,7-trihydroxy-2-(4-methoxyphenyl)-4H-chromen-4-one] | 62% | 28.75 ×10^4 | 15.35 ×10^4 | 10.1 ×10^4 | 6.45 ×10^4 | 0.25 ×10^4
COc1c(-c2ccc(Cl)cc2)oc2c(CC=C(C)C)c(O)cc(O)c2c1=O [Compound 14, 2-(4-chlorophenyl)-5,7-dihydroxy-3-methoxy-8-(3-methylbut-2-enyl)-4H-chromen-4-one] | 37% | 30.05 ×10^4 | 14.54 ×10^4 | 2.51 ×10^4 | 0 ×10^4 | 0 ×10^4
CC(C)=CCc1c(O)cc(O)c2c(=O)cc(-c3ccc(Cl)cc3)oc12 [Compound 22, 2-(4-chlorophenyl)-5,7-dihydroxy-8-(3-methylbut-2-enyl)-4H-chromen-4-one] | 66% | 39.0 ×10^4 | 21.6 ×10^4 | 15.6 ×10^4 | 4.2 ×10^4 | 0.6 ×10^4
COc1ccc(-c2cc(=O)c3c(O)cc(O)c(CC=C(C)C)c3o2)cc1Cl [Compound 27, 2-(3-chloro-4-methoxyphenyl)-5,7-dihydroxy-8-(3-methylbut-2-enyl)-4H-chromen-4-one] | – | 59.4 ×10^4 | 45.2 ×10^4 | 5.4 ×10^4 | 1.05 ×10^4 | 0 ×10^4
CC(C)=CCc1c(O)ccc2c(=O)cc(-c3ccc(C(F)(F)F)cc3)oc12 [Compound 29, 2-(4-(trifluoromethyl)phenyl)-7-hydroxy-8-(3-methylbut-2-enyl)-4H-chromen-4-one] | – | 27.9 ×10^4 | 30.1 ×10^4 | 24.3 ×10^4 | 23.4 ×10^4 | 12.3 ×10^4
CC(C)=CCc1c(O)ccc2c(=O)cc(-c3ccc(C)cc3)oc12 [Compound 30, 7-hydroxy-8-(3-methylbut-2-enyl)-2-(4-methylphenyl)-4H-chromen-4-one] | – | 21.1 ×10^4 | 10.8 ×10^4 | 5.8 ×10^4 | 3.6 ×10^4 | 1.5 ×10^4
CC(C)=CCc1c(O)ccc2c(=O)cc(-c3ccc(F)cc3)oc12 [Compound 31, 2-(4-fluorophenyl)-7-hydroxy-8-(3-methylbut-2-enyl)-4H-chromen-4-one] | – | 24.0 ×10^4 | 25.5 ×10^4 | 27.25 ×10^4 | 9.6 ×10^4 | 7.5 ×10^4
CC(C)=CCc1c(O)ccc2c(=O)cc(-c3ccncc3)oc12 [Compound 36, 7-hydroxy-8-(3-methylbut-2-enyl)-2-(pyridin-4-yl)-4H-chromen-4-one] | 56% | 25.6 ×10^4 | 14.8 ×10^4 | 10.65 ×10^4 | 3.65 ×10^4 | 1.4 ×10^4
CC(C)=CCc1c(O)ccc2c(=O)cc(-c3cccnc3)oc12 [Compound 38, 7-hydroxy-8-(3-methylbut-2-enyl)-2-(pyridin-3-yl)-4H-chromen-4-one] | 24% | 27.8 ×10^4 | 19.66 ×10^4 | 13.8 ×10^4 | 10.1 ×10^4 | 2.6 ×10^4
CC/C(=C(\c1ccccc1)c1ccc(OCCN(C)C)cc1)c1ccccc1 [Tamoxifen, reference compound] | 40 to 50% | – | – | – | – | –
